Here are results for 2 compounds from paper PMC3101112 (Cancer Management and Research, 2011).

Structures are written as SMILES. Some results are limits rather than exact numbers.

For one assay, the system named is MV4-11. Nature of the assay: cells. Type of assay: cell-based. Conditions: Homo sapiens, MV4-11, read-out: Cell-Based Antiproliferation Assay IC50.
The target in a further assay is p70S6K (Homo sapiens, UniProt P23443). In words: Biochemical inhibition profile, p70S6K. To be noted: read-out: p70S6K percent inhibition at 20 μM.
Assay [1] relates to pERK T202Y204 in HUVEC (with BSA). In words: Cell-based target inhibition assay, HUVEC, VEGF, pERK with BSA. To be noted: Homo sapiens, read-out: Cell-Based Target Inhibition Assays IC50, pERK T202Y204 (with BSA). Details: species or system human.
In another assay the test system is pERK T202Y204 in HUVEC. In words: Cell-based target inhibition assay, HUVEC, VEGF, pERK. Conditions: Homo sapiens, read-out: Cell-Based Target Inhibition Assays IC50, pERK T202Y204. Further details: species or system human.
For another assay, the system named is pFLT3. To be noted: Western blotting; 200 mg; 10/13 patients; cited from earlier work. On the technique in general: Immunoblotting shows a protein as a band on a membrane.
Another assay deals with RAF. Nature of the assay: Biochemical inhibition profile, RAF. Further details: species or system Human. Conditions: read-out: Biochemical Inhibition Profile IC50, RAF.
For the next assay, the target named is EPHA8 (Homo sapiens, UniProt P29322). In words: Biochemical inhibition profile, EPHA8.
EPHA8, sequence (P29322 28-1005): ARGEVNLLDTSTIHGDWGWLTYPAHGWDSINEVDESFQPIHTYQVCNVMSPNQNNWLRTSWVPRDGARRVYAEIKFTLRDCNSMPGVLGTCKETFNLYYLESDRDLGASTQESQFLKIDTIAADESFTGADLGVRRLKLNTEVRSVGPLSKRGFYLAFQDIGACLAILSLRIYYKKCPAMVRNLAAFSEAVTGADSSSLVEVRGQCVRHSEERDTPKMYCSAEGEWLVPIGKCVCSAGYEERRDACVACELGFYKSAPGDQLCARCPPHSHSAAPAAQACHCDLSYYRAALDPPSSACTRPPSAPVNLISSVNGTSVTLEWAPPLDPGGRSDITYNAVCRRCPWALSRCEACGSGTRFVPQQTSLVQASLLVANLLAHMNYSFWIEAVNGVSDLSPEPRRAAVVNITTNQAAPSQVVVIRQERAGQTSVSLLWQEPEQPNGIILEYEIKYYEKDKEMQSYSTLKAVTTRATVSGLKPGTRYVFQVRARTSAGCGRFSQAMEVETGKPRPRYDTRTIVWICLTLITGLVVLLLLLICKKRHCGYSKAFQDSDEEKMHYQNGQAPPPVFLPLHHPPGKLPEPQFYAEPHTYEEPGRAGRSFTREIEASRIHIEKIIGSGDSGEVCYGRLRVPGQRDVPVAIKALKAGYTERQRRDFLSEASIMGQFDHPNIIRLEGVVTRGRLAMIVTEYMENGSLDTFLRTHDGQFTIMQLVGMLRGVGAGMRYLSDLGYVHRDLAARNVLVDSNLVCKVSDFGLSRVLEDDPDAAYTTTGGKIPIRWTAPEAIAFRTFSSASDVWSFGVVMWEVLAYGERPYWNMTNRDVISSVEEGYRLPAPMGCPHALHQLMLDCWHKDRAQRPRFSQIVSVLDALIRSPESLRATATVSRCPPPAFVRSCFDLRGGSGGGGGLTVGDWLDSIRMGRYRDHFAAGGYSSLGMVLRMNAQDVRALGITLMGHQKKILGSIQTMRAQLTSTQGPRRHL

p70S6K, sequence (P23443 whole entry): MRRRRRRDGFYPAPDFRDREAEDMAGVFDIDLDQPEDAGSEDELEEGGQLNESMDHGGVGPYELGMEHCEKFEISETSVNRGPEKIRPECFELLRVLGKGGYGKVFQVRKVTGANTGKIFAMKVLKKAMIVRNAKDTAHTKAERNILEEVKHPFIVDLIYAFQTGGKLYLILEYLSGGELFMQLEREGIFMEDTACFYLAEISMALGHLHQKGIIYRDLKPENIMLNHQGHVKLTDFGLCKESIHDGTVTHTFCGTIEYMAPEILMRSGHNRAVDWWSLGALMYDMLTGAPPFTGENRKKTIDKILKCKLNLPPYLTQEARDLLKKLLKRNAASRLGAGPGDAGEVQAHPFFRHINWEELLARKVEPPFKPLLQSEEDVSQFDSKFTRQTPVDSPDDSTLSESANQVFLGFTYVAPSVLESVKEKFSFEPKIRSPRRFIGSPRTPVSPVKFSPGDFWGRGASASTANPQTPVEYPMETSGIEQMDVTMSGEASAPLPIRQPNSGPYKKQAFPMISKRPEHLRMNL

Consider `CNC(=O)c1cc(Oc2ccc(NC(=O)Nc3ccc(Cl)c(C(F)(F)F)c3)cc2)ccn1` [Sorafenib], for which the results for the IC50 (with MV4-11; in assay [1]) were 11.7 nM and 38 nM, respectively. Besides, the inhibition (as a rule, the relative decrease from the control value, in per cent) at 20 µM on p70S6K came out at 75.6%.

Turning to `CCN(CC)CCNC(=O)c1c(C)[nH]c(/C=C2\C(=O)Nc3ccc(F)cc32)c1C` [Sunitinib, reference compound], the IC50 in the assay on pERK T202Y204 in HUVEC is 28.7 nM; in the assay with MV4-11, 19.6 nM; with RAF, over 20 µM; against EPHA8, over 20 µM. In the assay on pFLT3, the “Patients with reduction of pFLT3” value is 77%. Besides, the inhibition at 20 µM at p70S6K stood at 92.3%.
